The source of these data is patent publication US12383505B2, “Nanoparticle for the remodeling of cancer-associated fibroblasts” (University of South Carolina, priority 2021, dated 2025).

Assay [1] deals with NIH3T3 cells. Nature of the assay: DOX induced CAF differentiation, immunocytochemistry of α-SMA and fibronectin. It counts as cell-based, mouse. The settings on record: 0.05 μM of free DOX for 48 hours. The source says:
(§1) Anthracycline-containing regimens are predominantly used in neoadjuvant chemotherapy for breast cancer. See, J. Wang, T. A. Buchholz, L. P. Middleton, D. C. Allred, S. L. Tucker, H. M. Kuerer, F. J. Esteva, G. N. Hortobagyi, A. A. Sahin, Cancer 2002, 94, 3107; M. S. van Ramshorst, A. van der Voort, E. D. van Werkhoven, I. A. Mandjes, I. Kemper, V. O. Dezentjé, I. M. Oving, A. H. Honkoop, L. W. Tick, A. J. van de Wouw, The Lancet Oncology 2018. However, only a little benefit was achieved from this neoadjuvant chemotherapy in the majority of patients. […] Chen, Y.-A. Lai, Y.-C. Lin, J.-W. Ma, L.-F. Huang, N.-S. Yang, C.-T. Ho, S.-C. Kuo, T.-D. Way, Journal Of Agricultural And Food Chemistry 2013, 61, 11817; N. Chintalaramulu, R. Vadivelu, N. Nguyen, I. Cock, Inflammopharmacology 2020, especially at lower doses. To investigate the relationship between DOX and the differentiation and transdifferentiation of CAF and the potential effect of T-CeNP in inhibiting DOX-induced metastasis, T-CeNP was added to NIH3T3 and 4T1 cells either before or after receiving DOX treatment. The expression of the CAF related proteins, including α-SMA and fibronectin, and metastasis-associated E-cadherin were evaluated by immunocytochemistry. […] The quantitative comparison of their corresponding fluorescence intensities further verified these trends. […]

Assay [2] has as its system 4T1 cells. Nature of the assay: DOX induced EMT, immunocytochemistry of E-cadherin. The format is cell-based, murine. Conditions: 0.05 μM of free DOX for 48 hours.
Description: as §1

Assay [3] concerns 4T1-luc orthotopic tumor. Nature of the assay: Neoadjuvant chemotherapy in orthotopic breast cancer model: primary tumor. It counts as in vivo, BALB/c mice. The settings on record: i.v., CeNP 1 mg/kg, DOX 3 mg/kg, every 3 days for 4 times. How it is done:
(§2) The 4T1 orthotopic model was established following our previous method with a minor modification. All animal experiments were conducted in accordance with NIH regulations and approved by the Institutional Animal Care and Use Committee of the University of South Carolina. 4T1/Luc2 cells (2×10^5 in 20 μl PBS) were injected into the right 4th mammary fat pad of 6-8 weeks female BALB/c mice, and the primary tumor growth was monitored through bioluminescence signal using IVIS imaging system. Two weeks post tumor cell inoculation, the mice were randomly divided into 6 groups (n=10), including control, T-CeNP, T-DOX, free DOX, T-CeNP+T-DOX, and T-CeNP+ Free DOX, and received corresponding neoadjuvant chemotherapy, surgery, and postoperative chemotherapy. In brief, for neoadjuvant chemotherapy, the drugs were intravenously injected at a CeNP dosage of 1 mg/kg and DOX dosage of 3 mg/kg every 3 days for 4 times. Specifically, for the groups of
(§3) T-CeNP+T-DOX and T-CeNP+ free DOX, T-CeNP was administrated to mice 2 days prior to T-DOX or Free DOX treatment. Two days after the last dose, all mice underwent complete
surgical removal of the tumors following our previous method. Two days after the surgery, the mice received another 3 times administration of T-CeNP, T-DOX, free DOX, and their combination as post-surgical chemotherapy. […]

The subject of assay [4] is 4T1-luc lung and liver metastasis. In words: Post-surgery lung and liver metastasis in orthotopic breast cancer model. It counts as in vivo, BALB/c mice. How it is done:
as §2, §3
surgical removal of the tumors following our previous method. Two days after the surgery, the mice received another 3 times administration of T-CeNP, T-DOX, free DOX, and their combination as post-surgical chemotherapy. At the end of the study (day 24), the mice were sacrificed, and the lung and liver were harvested for ex vivo bioluminescence imaging to examine the metastasis.
The harvested tumors and major organs were fixed with 4% paraformaldehyde and processed by paraffin sectioning and frozen sectioning. Tissue sections (heart, liver, spleen, and kidney) and lung sections were hematoxylin and eosin (H&E) stained for acute toxicity evaluation and lung metastasis evaluation. […] All the immunofluorescence images were recorded with a fluorescence microscope (Evos™ FL, ThermoFisher Scientific, MA, USA).

The mark [5] stands for this setting: ex vivo bioluminescence imaging, day 24.

For the compound `COc1cccc2c1C(=O)c1c(O)c3c(c(O)c1C2=O)C[C@@](O)(C(=O)CO)C[C@@H]3O[C@H]1C[C@H](N)[C@H](O)[C@H](C)O1` [free DOX, doxorubicin], the “level of α-SMA and fibronectin” value in assay [1] was “boosted level of α-SMA and fibronectin”. Also, the E-cadherin expression entry in assay [2] is “declined E-cadherin expression”. Moreover, the primary tumor size entry in assay [3] is on record as “only slightly reduced the size of the primary tumor”. Besides, in assay [4] (setting [5]), the liver metastasis result is “inductive effect” and the lung metastasis occurrence result was “developed lung metastasis”. Also, the lung metastasis nodules result in assay [4] (nodules on the surface of lung) is given as “induced more metastasis nods in the lung”.
